According to ChEMBL document CHEMBL3632610, “Expanding the structural diversity of Bcr-Abl inhibitors: Dibenzoylpiperazin incorporated with 1H-indazol-3-amine” (Eur J Med Chem, 2015):

Legend:
K562 = experiment: Cytotoxicity against human K562 cells expressing Bcr-Abl assessed as growth inhibition after 48 hrs by MTT assay; conditions: K562, 48 h
Bcr/Abl fusion protein [1] = target: Bcr/Abl fusion protein (Homo sapiens, UniProt P00519, T315I); experiment: Inhibition of Bcr-Abl T315I mutant (unknown origin) by ADP-Glo assay; type: protein assay
Bcr/Abl fusion protein [2] = target: Bcr/Abl fusion protein (Homo sapiens, UniProt P00519); experiment: Inhibition of wild type Bcr-Abl (unknown origin) by ADP-Glo assay; type: protein assay

COc1cc(OC)cc(C(=O)N2CCN(C(=O)c3ccc(-c4cccc5[nH]nc(N)c45)cc3)CC2)c1
IC50 (K562): 105 µM
IC50 (Bcr/Abl fusion protein [1]): > 100 µM

Nc1n[nH]c2cccc(-c3ccc(C(=O)N4CCN(C(=O)c5ccc(Cl)cc5Cl)CC4)cc3)c12
IC50 (K562): 6.5 µM
IC50 (Bcr/Abl fusion protein [2]): 0.014 µM
IC50 (Bcr/Abl fusion protein [1]): 0.45 µM

Nc1n[nH]c2cccc(-c3ccc(C(=O)N4CCN(C(=O)c5cccc(F)c5)CC4)cc3)c12
IC50 (K562): 30.2 µM
IC50 (Bcr/Abl fusion protein [2]): 0.086 µM
IC50 (Bcr/Abl fusion protein [1]): 2.07 µM

COc1cccc(C(=O)N2CCN(C(=O)c3ccc(-c4cccc5[nH]nc(N)c45)cc3)CC2)c1
IC50 (K562): 9.6 µM
IC50 (Bcr/Abl fusion protein [2]): 49.2 µM
IC50 (Bcr/Abl fusion protein [1]): > 100 µM

Nc1n[nH]c2cccc(-c3ccc(C(=O)N4CCN(C(=O)c5ccccc5Cl)CC4)cc3)c12
IC50 (K562): 53.7 µM
IC50 (Bcr/Abl fusion protein [2]): 0.084 µM
IC50 (Bcr/Abl fusion protein [1]): 3.41 µM

Nc1n[nH]c2cccc(-c3ccc(C(=O)N4CCN(C(=O)c5ccccc5Br)CC4)cc3)c12
IC50 (K562): 47.3 µM
IC50 (Bcr/Abl fusion protein [2]): 0.18 µM
IC50 (Bcr/Abl fusion protein [1]): 0.74 µM

Nc1n[nH]c2cccc(-c3ccc(C(=O)N4CCN(C(=O)c5cccc(C(F)(F)F)c5)CC4)cc3)c12
IC50 (K562): 18.1 µM
IC50 (Bcr/Abl fusion protein [2]): 2.76 µM
IC50 (Bcr/Abl fusion protein [1]): 94.6 µM

Nc1n[nH]c2cccc(-c3ccc(C(=O)N4CCN(C(=O)c5ccc(F)c(F)c5)CC4)cc3)c12
IC50 (K562): 21.5 µM
IC50 (Bcr/Abl fusion protein [2]): > 100 µM
IC50 (Bcr/Abl fusion protein [1]): 83.5 µM

COc1ccc(C(=O)N2CCN(C(=O)c3ccc(-c4cccc5[nH]nc(N)c45)cc3)CC2)cc1
IC50 (K562): 69.7 µM
IC50 (Bcr/Abl fusion protein [2]): > 100 µM
IC50 (Bcr/Abl fusion protein [1]): > 100 µM

Cc1cccc(C(=O)N2CCN(C(=O)c3ccc(-c4cccc5[nH]nc(N)c45)cc3)CC2)c1
IC50 (K562): 21.8 µM
IC50 (Bcr/Abl fusion protein [2]): 2.37 µM
IC50 (Bcr/Abl fusion protein [1]): > 100 µM

Nc1n[nH]c2cccc(-c3ccc(C(=O)N4CCN(C(=O)c5ccc(Cl)cc5)CC4)cc3)c12
IC50 (K562): 10.5 µM
IC50 (Bcr/Abl fusion protein [2]): 1.89 µM
IC50 (Bcr/Abl fusion protein [1]): 65.6 µM

COc1ccccc1C(=O)N1CCN(C(=O)c2ccc(-c3cccc4[nH]nc(N)c34)cc2)CC1
IC50 (K562): 32.1 µM
IC50 (Bcr/Abl fusion protein [2]): 22.8 µM
IC50 (Bcr/Abl fusion protein [1]): > 100 µM

Cc1ccccc1C(=O)N1CCN(C(=O)c2ccc(-c3cccc4[nH]nc(N)c34)cc2)CC1
IC50 (K562): 17.2 µM
IC50 (Bcr/Abl fusion protein [2]): 8.56 µM
IC50 (Bcr/Abl fusion protein [1]): > 100 µM

Nc1n[nH]c2cccc(-c3ccc(C(=O)NCCNC(=O)c4ccc(F)c(F)c4)cc3)c12
IC50 (K562): 28.4 µM
IC50 (Bcr/Abl fusion protein [2]): 14.3 µM
IC50 (Bcr/Abl fusion protein [1]): 75.3 µM

Nc1n[nH]c2cccc(-c3ccc(C(=O)NCCNC(=O)c4ccccc4Br)cc3)c12
IC50 (K562): 13.1 µM
IC50 (Bcr/Abl fusion protein [2]): 0.031 µM
IC50 (Bcr/Abl fusion protein [1]): 1.04 µM

Cc1ccccc1C(=O)NCCNC(=O)c1ccc(-c2cccc3[nH]nc(N)c23)cc1
IC50 (K562): 8 µM
IC50 (Bcr/Abl fusion protein [2]): 0.018 µM
IC50 (Bcr/Abl fusion protein [1]): 28.8 µM

Nc1n[nH]c2cccc(-c3ccc(C(=O)NCCNC(=O)c4cccc(C(F)(F)F)c4)cc3)c12
IC50 (K562): 61.9 µM
IC50 (Bcr/Abl fusion protein [2]): 0.45 µM
IC50 (Bcr/Abl fusion protein [1]): 56.3 µM

Nc1n[nH]c2cccc(-c3ccc(C(=O)NCCNC(=O)c4cccc(F)c4)cc3)c12
IC50 (K562): 26.9 µM
IC50 (Bcr/Abl fusion protein [1]): > 100 µM

COc1ccccc1C(=O)NCCNC(=O)c1ccc(-c2cccc3[nH]nc(N)c23)cc1
IC50 (K562): 13.9 µM
IC50 (Bcr/Abl fusion protein [2]): 0.25 µM
IC50 (Bcr/Abl fusion protein [1]): > 100 µM

COc1ccc(C(=O)NCCNC(=O)c2ccc(-c3cccc4[nH]nc(N)c34)cc2)cc1
IC50 (K562): 258 µM
IC50 (Bcr/Abl fusion protein [2]): > 100 µM
IC50 (Bcr/Abl fusion protein [1]): > 100 µM

Cc1nc(Nc2ncc(C(=O)Nc3c(C)cccc3Cl)s2)cc(N2CCN(CCO)CC2)n1 [DASATINIB]
IC50 (K562): 0.45 µM
